These results are taken from ChEMBL document CHEMBL1147170, “Synthesis and biological evaluation of two glycerolipidic prodrugs of didanosine for direct lymphatic delivery against HIV” (Bioorg Med Chem Lett, 2007).

Series [1] has as its system Human immunodeficiency virus 1. As to the kind of experiment: Antiviral activity against HIV1 LAI activity in phytohemagglutininin-activated human PBMC assessed as viral replication after 7 days. The class given is functional. As to conditions: for EC50: Human immunodeficiency virus 1, LAI, 168 h, read-out: ED50 (the source's name).
Series [2] is described as follows: (§1) Cytotoxicity against phytohemagglutininin-activated human PBMC after 7 days by MTT assay. It counts as cell-based. To be noted: phytohemagglutinin-activated PBMC, read-out: CD50. A general note: Tetrazolium assays rely on reduction of a dye to a coloured formazan, in cell work by metabolically active cells.
The subject of series [3] is PBMC. Described as §1. As to conditions: pbmc, 168 h. The class given is cell-based.

In the case of `CCCCCCCCCCCCCCCC(=O)OCC(COC(=O)CCCCCCCCCCCCCCC)OC(=O)CCCC(=O)OC[C@@H]1CC[C@H](n2cnc3c(=O)[nH]cnc32)O1`, in series [1], the ED90 was over 12 µM and the EC50 is 2.8 µM. For the same molecule, the CC50 at 168 h in series [2] is over 12 µM. Also, the CD90 in series [3] is over 12 µM.
Consider `CCCCCCCCCCCCCCCC(=O)OCC(COC(=O)CCCCCCCCCCCCCCC)OC(=O)CCCCCOP(=O)(O)OC[C@@H]1CC[C@H](n2cnc3c(=O)[nH]cnc32)O1`, for which, in series [1], the ED90 is over 50 µM and the EC50 is 28.5 µM. Moreover, the CC50 at 168 h in series [2] is over 50 µM. Moreover, the CD90 in series [3] is over 50 µM.
As to `O=c1[nH]cnc2c1ncn2[C@H]1CC[C@@H](CO)O1` [DIDANOSINE], in series [1], the ED90 was determined as 4.8 µM and the EC50 came to 1.2 µM. The CC50 at 168 h in series [2] was 40 µM. Moreover, in series [3], the CD90 is over 50 µM.
